Test results: patent EP4393921B1, “NALIDINONE COMPOUND AS FGFR4 INHIBITOR AND USE THEREOF” (Wenzhou Medical University, priority 2021, dated 2023)
Like-named read-outs stand apart in the source and are kept apart here.

What was measured:
FGFR1 = FGFR1 (Homo sapiens, UniProt P11362); test: Mobility shift assay, FGFR1 kinase inhibition
Description: (§2) A specific experimental method is as follows.
(§3) (1) A 1×Kinase buffer was prepared. […] (3) A kinase solution with a 2.5 times final concentration was prepared with the 1×Kinase buffer. (4) 10 µL of the kinase solution with a 2.5 times final concentration was added to compound holes and positive control holes, respectively; and 10 µL of the 1×Kinase buffer was added to negative control holes. (5) Centrifugation was performed at 1,000 rpm for 30 s, the reaction plate was shaken for even mixing, and incubation was performed at room temperature for 60 min. (6) A mixed solution, with a 25/15 times final concentration, of ATP and Kinase substrate22 was prepared with the 1×Kinase buffer. (7) 15 µL of a mixed solution, with a 5/3 times final concentration, of ATP and a substrate was added to carry out an initial reaction. (8) A 384-well plate was centrifuged at 1,000 rpm for 30 s and shaken for even mixing, and incubation was performed at room temperature for 30 min. (9) 30 µL of a terminal detection solution was added to stop a kinase reaction, centrifugation was performed at 1,000 rpm for 30 s, and shaking was performed for even mixing. (10) A conversion rate was read with Caliper EZ Reader.
(§4) A dose-effect curve is fitted as follows.
(§5) With a concentration log value as an X axis and an inhibition rate percentage as a Y axis, the dose-effect curve was fitted by log (inhibitor) vs. response-Variable slope of analysis software GraphPad Prism 5, so as to obtain an IC50 value of each compound on enzyme activity. A calculation formula is: Y=Bottom+(Top-Bottom)/(1+10^((LogIC50-X)*HillSlope)).

FGFR2 = FGFR2 (Homo sapiens, UniProt P21802); test: Mobility shift assay, FGFR2 kinase inhibition
Description: as §2, §3, §4, §5

FGFR3 = FGFR3 (Homo sapiens, UniProt P22607); test: Mobility shift assay, FGFR3 kinase inhibition
Sequence of FGFR3 (P22607 23-806): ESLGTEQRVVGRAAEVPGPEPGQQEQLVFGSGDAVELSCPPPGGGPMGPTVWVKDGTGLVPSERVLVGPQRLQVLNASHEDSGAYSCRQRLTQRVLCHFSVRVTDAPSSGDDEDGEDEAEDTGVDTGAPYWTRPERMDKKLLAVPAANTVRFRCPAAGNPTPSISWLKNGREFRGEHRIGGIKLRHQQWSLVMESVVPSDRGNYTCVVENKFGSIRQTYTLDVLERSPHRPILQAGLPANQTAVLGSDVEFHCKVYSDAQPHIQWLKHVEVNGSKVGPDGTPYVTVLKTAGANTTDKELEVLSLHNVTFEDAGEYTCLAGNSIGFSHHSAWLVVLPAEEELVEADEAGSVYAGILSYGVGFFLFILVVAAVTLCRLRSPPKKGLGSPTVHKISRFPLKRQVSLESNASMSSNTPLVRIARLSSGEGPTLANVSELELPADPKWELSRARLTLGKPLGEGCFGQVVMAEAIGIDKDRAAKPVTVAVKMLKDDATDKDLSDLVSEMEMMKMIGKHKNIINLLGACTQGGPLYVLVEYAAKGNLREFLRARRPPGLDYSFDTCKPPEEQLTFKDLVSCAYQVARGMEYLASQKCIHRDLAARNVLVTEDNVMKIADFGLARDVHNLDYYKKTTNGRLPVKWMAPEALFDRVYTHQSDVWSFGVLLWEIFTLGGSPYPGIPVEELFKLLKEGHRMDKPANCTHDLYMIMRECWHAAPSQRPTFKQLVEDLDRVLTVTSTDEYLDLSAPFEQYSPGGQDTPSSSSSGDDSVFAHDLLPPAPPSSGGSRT
Description: as §2, §3, §4, §5

FGFR4 = FGFR4 (Homo sapiens, UniProt P22455); test: Mobility shift assay, FGFR4 kinase inhibition
Sequence of FGFR4 (P22455 22-802): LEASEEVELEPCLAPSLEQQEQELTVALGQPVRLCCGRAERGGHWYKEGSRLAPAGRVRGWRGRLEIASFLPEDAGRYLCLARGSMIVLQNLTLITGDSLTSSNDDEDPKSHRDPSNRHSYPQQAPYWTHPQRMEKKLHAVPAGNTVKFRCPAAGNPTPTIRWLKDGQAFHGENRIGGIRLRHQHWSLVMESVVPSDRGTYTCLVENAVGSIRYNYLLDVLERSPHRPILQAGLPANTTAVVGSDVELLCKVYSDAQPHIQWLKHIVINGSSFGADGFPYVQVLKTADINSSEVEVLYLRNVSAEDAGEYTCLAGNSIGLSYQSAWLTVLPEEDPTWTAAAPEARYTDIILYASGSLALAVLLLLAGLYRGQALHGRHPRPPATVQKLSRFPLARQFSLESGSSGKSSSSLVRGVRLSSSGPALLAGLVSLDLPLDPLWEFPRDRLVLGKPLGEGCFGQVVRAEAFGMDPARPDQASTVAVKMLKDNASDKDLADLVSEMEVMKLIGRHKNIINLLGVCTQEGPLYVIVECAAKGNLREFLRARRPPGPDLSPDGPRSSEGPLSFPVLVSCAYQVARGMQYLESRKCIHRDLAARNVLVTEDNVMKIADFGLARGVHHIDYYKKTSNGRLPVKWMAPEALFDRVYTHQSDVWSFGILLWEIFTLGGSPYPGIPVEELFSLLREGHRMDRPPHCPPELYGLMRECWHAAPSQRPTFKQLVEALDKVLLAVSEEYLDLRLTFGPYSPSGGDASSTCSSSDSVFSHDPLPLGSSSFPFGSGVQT
Description: as §2, §3, §4, §5

[1] = system: colon cancer cells HCT-116; test: MTT proliferation assay on colon cancer cells HCT-116; assay type: cell-based; conditions: 3-100 µM, 72 h, dose-dependent, FIG. 4
Description: (§1) An MTT method was used for determination. An experimental method is briefly described as follows. A test compound 23 was first dissolved in DMSO to prepare a stock solution, and then the stock solution was subjected to gradient dilution with a corresponding cell culture medium to prepare a test sample, where a final concentration of the compound was in the range of 3-100 uM. Cells in a logarithmic culture stage were inoculated into a 96-well cell culture plate at an appropriate density, cultured overnight under corresponding conditions, and then continuously cultured for 72 h after the test compound sample was added. After the culture was completed, an appropriate volume of an MTT detection solution was added to each well, incubation was performed at 37°C for 1-4 h, and the culture medium was carefully discarded. […].

colon cancer cells SW480 = test: MTT proliferation assay on colon cancer cells SW480; assay type: cell-based; conditions: 3-100 µM, 72 h, dose-dependent, FIG. 5
Description: as §1

colon cancer cells RKO = test: MTT proliferation assay on colon cancer cells RKO; assay type: cell-based; conditions: 3-100 µM, 72 h, dose-dependent, FIG. 6
Description: as §1

Sequence of FGFR2 (P21802 22-821): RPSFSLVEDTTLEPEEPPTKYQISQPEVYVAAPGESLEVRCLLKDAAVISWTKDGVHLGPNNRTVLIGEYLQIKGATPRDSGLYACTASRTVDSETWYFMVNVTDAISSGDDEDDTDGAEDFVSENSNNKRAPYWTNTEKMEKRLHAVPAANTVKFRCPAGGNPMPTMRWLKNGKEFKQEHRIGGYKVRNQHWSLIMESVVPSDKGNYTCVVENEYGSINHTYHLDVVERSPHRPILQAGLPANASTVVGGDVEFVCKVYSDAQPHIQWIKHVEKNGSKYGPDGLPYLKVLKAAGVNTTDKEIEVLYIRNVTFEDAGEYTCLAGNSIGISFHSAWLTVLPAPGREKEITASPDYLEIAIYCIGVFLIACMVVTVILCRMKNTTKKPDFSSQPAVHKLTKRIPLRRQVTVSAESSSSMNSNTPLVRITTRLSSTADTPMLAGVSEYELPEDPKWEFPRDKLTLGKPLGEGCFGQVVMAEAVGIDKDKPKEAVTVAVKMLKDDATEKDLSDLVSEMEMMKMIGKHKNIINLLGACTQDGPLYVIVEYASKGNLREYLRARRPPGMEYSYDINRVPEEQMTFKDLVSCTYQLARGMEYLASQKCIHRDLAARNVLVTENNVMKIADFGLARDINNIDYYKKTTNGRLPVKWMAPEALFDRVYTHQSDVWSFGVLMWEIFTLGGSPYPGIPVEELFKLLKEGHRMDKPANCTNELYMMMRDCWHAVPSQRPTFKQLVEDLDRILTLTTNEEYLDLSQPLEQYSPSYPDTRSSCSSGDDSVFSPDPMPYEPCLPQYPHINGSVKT
Sequence of FGFR1 (P11362 22-822): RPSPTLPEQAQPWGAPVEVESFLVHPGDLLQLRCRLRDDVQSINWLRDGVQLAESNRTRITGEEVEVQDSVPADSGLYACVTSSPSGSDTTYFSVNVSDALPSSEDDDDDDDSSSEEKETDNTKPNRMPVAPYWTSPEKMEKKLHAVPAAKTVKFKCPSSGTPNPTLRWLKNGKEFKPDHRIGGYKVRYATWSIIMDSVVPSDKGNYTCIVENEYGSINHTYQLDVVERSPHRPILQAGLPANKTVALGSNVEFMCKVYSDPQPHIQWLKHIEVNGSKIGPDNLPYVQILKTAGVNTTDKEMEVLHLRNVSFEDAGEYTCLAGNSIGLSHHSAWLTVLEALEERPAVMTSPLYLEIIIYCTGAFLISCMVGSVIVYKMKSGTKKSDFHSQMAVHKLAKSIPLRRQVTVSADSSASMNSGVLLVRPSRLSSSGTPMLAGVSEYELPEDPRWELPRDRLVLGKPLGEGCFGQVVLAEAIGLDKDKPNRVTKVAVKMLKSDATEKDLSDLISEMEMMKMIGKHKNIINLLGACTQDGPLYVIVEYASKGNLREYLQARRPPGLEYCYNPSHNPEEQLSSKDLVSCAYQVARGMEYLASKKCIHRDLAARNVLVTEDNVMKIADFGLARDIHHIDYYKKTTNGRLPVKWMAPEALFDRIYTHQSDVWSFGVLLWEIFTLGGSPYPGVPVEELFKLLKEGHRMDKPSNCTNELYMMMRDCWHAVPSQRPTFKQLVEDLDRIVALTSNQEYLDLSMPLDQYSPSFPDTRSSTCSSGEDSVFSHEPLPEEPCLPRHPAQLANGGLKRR

IC50 (FGFR1; read-out: IC50 (nM) FGFR1, Mobility shift assay)	IC50 (FGFR2)	IC50 (FGFR3)	IC50 (FGFR4)	IC50 (FGFR1)	SMILES	inhibition of proliferation of colon cancer cells HCT-116 [1]	inhibition of proliferation of colon cancer cells SW480 (colon cancer cells SW480)	inhibition of proliferation of colon cancer cells RKO (colon cancer cells RKO)
	> 5 µM	> 5 µM	0.0098 µM	> 5000 nM	C=CC(=O)Nc1cccc(C)c1Nc1cc2c(cn1)cc(-c1cc(OC)cc(OC)c1)c(=O)n2CCCN1CCCCC1 [Compound 22, N-(2-((3-(3,5-dimethoxyphenyl)-2-oxo-1-(3-(piperidin-1-yl)propyl)-1,2-dihydro-1,6-naphthyridin-7-yl)amino)-3-methylphenyl)acrylamide]			
	> 5 µM	> 5 µM	0.0044 µM	> 5000 nM	C=CC(=O)Nc1cccc(C)c1Nc1cc2c(cn1)cc(-c1c(Cl)c(OC)cc(OC)c1Cl)c(=O)n2CCCN1CCOCC1 [Compound 27, N-(2-((3-(2,6-dichloro-3,5-dimethoxyphenyl)-1-(3-morpholinopropyl)-2-oxo-1,2-2H-1,6-naphthyridin-7-yl)amino)-3-methylphenyl)acrylamide]			
	> 5 µM	> 5 µM		> 5000 nM	C=CC(=O)Nc1cccc(C)c1Nc1cc2c(cn1)cc(-c1c(Cl)c(OC)cc(OC)c1Cl)c(=O)n2CCCO [Compound 30, N-(2-((3-(2,6-dichloro-3,5-dimethoxyphenyl)-1-(3-hydroxypropyl)-2-oxo-1,2-2H-1,6-naphthyridin-7-yl)amino)-3-methylphenyl)acrylamide]			

Second part, the compound before the results:

SMILES	IC50 (FGFR1; read-out: IC50 (nM) FGFR1, Mobility shift assay)	IC50 (FGFR2)	IC50 (FGFR3)	IC50 (FGFR4)	IC50 (FGFR1)	inhibition of proliferation of colon cancer cells HCT-116 [1]	inhibition of proliferation of colon cancer cells SW480 (colon cancer cells SW480)	inhibition of proliferation of colon cancer cells RKO (colon cancer cells RKO)
C=CC(=O)Nc1cccc(C)c1Nc1ncc2cc(-c3c(Cl)c(OC)cc(OC)c3Cl)ccc2n1 [BLU9931, reference compound]	582 nM	0.436 µM	0.193 µM					
C=CC(=O)Nc1cccc(C)c1Nc1cc2c(cn1)cc(-c1c(Cl)c(OC)cc(OC)c1Cl)c(=O)n2CCCN1CCCCC1 [Compound 23, N-(2-((3-(2,6-dichloro-3,5-dimethoxyphenyl)-2-oxo-1-(3-(piperidin-1-yl)propyl)-1,2-2H-1,6-naphthyridin-7-yl)amino)-3-methylphenyl)acrylamide]		> 5 µM	> 5 µM	0.0037 µM	> 5000 nM	can inhibit proliferation	can inhibit proliferation	can inhibit proliferation
C=CC(=O)Nc1cccc(C)c1Nc1cc2c(cn1)cc(-c1cc(OC)cc(OC)c1)c(=O)n2CCCN1CCN(C)CC1 [Compound 24, N-(2-((3-(3,5-dimethoxyphenyl)-2-oxo-1-(3-(4-methylpiperazin-1-yl)propyl)-1,2-dihydro-1,6-naphthyridin-7-yl)amino)-3-methylphenyl)acrylamide]		> 5 µM	> 5 µM	0.0344 µM	> 5000 nM			
C=CC(=O)Nc1cccc(C)c1Nc1cc2c(cn1)cc(-c1c(Cl)c(OC)cc(OC)c1Cl)c(=O)n2CCCN1CCN(C)CC1 [Compound 25, N-(2-((3-(2,6-dichloro-3,5-dimethoxyphenyl)-2-oxo-1-(3-(4-methylpiperazin-1-yl)propyl)-1,2-2H-1,6-naphthyridin-7-yl)amino)-3-methylphenyl)acrylamide]		> 5 µM	> 5 µM	0.0058 µM	> 5000 nM			
C=CC(=O)Nc1cccc(C)c1Nc1cc2c(cn1)cc(-c1cc(OC)cc(OC)c1)c(=O)n2CCCN1CCOCC1 [Compound 26, N-(2-((3-(3,5-dimethoxyphenyl)-1-(3-morpholinopropyl)-2-oxo-1,2-dihydro-1,6-naphthyridin-7-yl)amino)-3-methylphenyl)acrylamide]		> 5 µM	> 5 µM		> 5000 nM			
C=CC(=O)Nc1cccc(C)c1Nc1cc2c(cn1)cc(-c1cc(OC)cc(OC)c1)c(=O)n2CCCO [Compound 29]		> 5 µM	> 5 µM	0.0315 µM	> 5000 nM			
